Test results published in ChEMBL document CHEMBL5505958, “Optimization of sequence and chiral content enhances therapeutic potential of tilapia piscidin peptides” (Eur J Med Chem, 2024).
≈ marks a conversion by molar mass, not a printed value. Calls of active or inactive are those of the source. No cut-off for these calls is given here.

How the values were obtained:
[1] = system: Klebsiella pneumoniae; assay: Antibacterial activity against Klebsiella pneumoniae BAA 2473 assessed as inhibition of bacterial growth in presence of 1 microg/ml of trypsin (reference value: 1.56 to 3.13 microM); format: functional
[2] = system: Klebsiella aerogenes; assay: Bactericidal activity against Enterobacter aerogenes 15630 assessed as inhibition of bacterial growth incubated for 16 to 20 hrs; format: functional; conditions: time 16-20 hrs
[3] = system: Yersinia enterocolitica; assay: Bactericidal activity against Yersinia enterocolitica 13999 assessed as inhibition of bacterial growth incubated for 16 to 20 hrs; format: functional; conditions: time 16-20 hrs
[4] = system: Klebsiella pneumoniae; assay: Induction of morphological changes in Klebsiella pneumoniae BAA 2473 assessed as membrane deformations with protruding granules at by transmission electron microscopy analysis; format: functional, organism-based
[5] = system: Staphylococcus haemolyticus; assay: Bactericidal activity against Staphylococcus haemolyticus 15237 assessed as inhibition of bacterial growth incubated for 16 to 20 hrs; format: functional; conditions: time 16-20 hrs
[6] = system: Salmonella enterica; assay: Antibacterial activity against Salmonella enterica 15455 assessed as inhibition of bacterial growth incubated for 16 to 20 hrs in presence of human serum; format: functional; conditions: time 16-20 hrs
[7] = system: Staphylococcus aureus; assay: Antibacterial activity against Staphylococcus aureus 10780 assessed as inhibition of bacterial growth incubated for 16 to 20 hrs in presence of human serum; format: functional; conditions: time 16-20 hrs
[8] = system: Klebsiella pneumoniae; assay: Antibacterial activity against Klebsiella pneumoniae BAA 2473 assessed as inhibition of bacterial growth in presence of 1 microg/ml of chymotrypsin (reference value: 1.56 to 3.13 microM); format: functional
[9] = system: Acinetobacter baumannii; assay: Bactericidal activity against Acinetobacter baumannii 10591 assessed as inhibition of bacterial growth incubated for 16 to 20 hrs; format: functional; conditions: time 16-20 hrs
[10] = system: Salmonella typhimurium; assay: Bactericidal activity against Salmonella typhimurium DT104 assessed as inhibition of bacterial growth incubated for 16 to 20 hrs; format: functional, Salmonella enterica subsp. enterica serovar Typhimurium; conditions: Salmonella enterica, time 16-20 hrs
[11] = system: Klebsiella pneumoniae; assay: Bactericidal activity against Klebsiella pneumoniae BAA 2473 assessed as inhibition of bacterial growth in presence of 10 microg/ml of chymotrypsin (reference value: 1.56 to 3.13 microM); format: functional
[12] = system: Salmonella typhimurium; assay: Bactericidal activity against Salmonella typhimurium DT104 assessed as inhibition of bacterial growth incubated for 16 to 20 hrs in presence of human serum; format: functional, Salmonella enterica subsp. enterica serovar Typhimurium; conditions: Salmonella enterica, time 16-20 hrs
[13] = system: Yersinia enterocolitica; assay: Antibacterial activity against Yersinia enterocolitica 13999 assessed as inhibition of bacterial growth incubated for 16 to 20 hrs; format: functional; conditions: time 16-20 hrs
[14] = system: Staphylococcus haemolyticus; assay: Antibacterial activity against Staphylococcus haemolyticus 15237 assessed as inhibition of bacterial growth incubated for 16 to 20 hrs; format: functional; conditions: time 16-20 hrs
[15] = system: Klebsiella pneumoniae; assay: Bactericidal activity against Klebsiella pneumoniae BAA 2473 assessed as inhibition of bacterial growth in presence of 10 microg/ml of proteinase K (reference value: 1.56 to 3.13 microM); format: functional
[16] = system: Klebsiella pneumoniae; assay: Bactericidal activity against Klebsiella pneumoniae BAA 2473 assessed as inhibition of bacterial growth in presence of 0.1 microg/ml of pepsin (reference value: 1.56 to 3.13 microM); format: functional
[17] = system: Klebsiella pneumoniae; assay: Bactericidal activity against Klebsiella pneumoniae BAA 2473 assessed as inhibition of bacterial growth in presence of 10 microg/ml of trypsin (reference value: 1.56 to 3.13 microM); format: functional
[18] = system: Enterococcus faecalis; assay: Bactericidal activity against Enterococcus faecalis 10066 assessed as inhibition of bacterial growth incubated for 16 to 20 hrs; format: functional; conditions: time 16-20 hrs
[19] = system: Cell membrane; assay: Induction of cell membrane depolarization in Klebsiella pneumoniae BAA 2473 assessed as increase in fluorescence intensity at 1 times MIC incubated for 40 mins by DiBAC4(3) fluorescent dye based assay; format: cell membranes
[20] = system: Escherichia coli; assay: Bactericidal activity against Escherichia coli 10675 assessed as inhibition of bacterial growth incubated for 16 to 20 hrs in presence of human serum; format: functional; conditions: time 16-20 hrs
[21] = system: Klebsiella pneumoniae; assay: Bactericidal activity against Klebsiella pneumoniae BAA 2473 assessed as inhibition of bacterial growth in presence of 1 microg/ml of pepsin (reference value: 1.56 to 3.13 microM); format: functional
[22] = system: Enterococcus faecalis; assay: Antibacterial activity against Enterococcus faecalis 10066 assessed as inhibition of bacterial growth incubated for 16 to 20 hrs; format: functional; conditions: time 16-20 hrs
[23] = system: Staphylococcus aureus; assay: Bactericidal activity against Staphylococcus aureus 10780 assessed as inhibition of bacterial growth incubated for 16 to 20 hrs; format: functional; conditions: time 16-20 hrs
[24] = system: Vibrio vulnificus; assay: Antibacterial activity against Vibrio vulnificus 204 assessed as inhibition of bacterial growth incubated for 16 to 20 hrs in presence of human serum; format: functional; conditions: time 16-20 hrs
[25] = system: Klebsiella aerogenes; assay: Antibacterial activity against Enterobacter aerogenes 15630 assessed as inhibition of bacterial growth incubated for 16 to 20 hrs; format: functional; conditions: time 16-20 hrs
[26] = system: Klebsiella pneumoniae; assay: Antibacterial activity against Klebsiella pneumoniae BAA 2473 assessed as inhibition of bacterial growth in presence of 10 microg/ml of trypsin (reference value: 1.56 to 3.13 microM); format: functional
[27] = system: Escherichia coli; assay: Antibacterial activity against Escherichia coli 10675 assessed as inhibition of bacterial growth incubated for 16 to 20 hrs; format: functional; conditions: time 16-20 hrs
[28] = system: Pseudomonas aeruginosa; assay: Bactericidal activity against Pseudomonas aeruginosa 19660 assessed as inhibition of bacterial growth incubated for 16 to 20 hrs in presence of human serum; format: functional; conditions: time 16-20 hrs
[29] = system: Acinetobacter baumannii; assay: Antibacterial activity against Acinetobacter baumannii 10591 assessed as inhibition of bacterial growth incubated for 16 to 20 hrs; format: functional; conditions: time 16-20 hrs
[30] = system: Rhizopus arrhizus; assay: Fungicidal activity against Rhizopus oryzae 34550 assessed as inhibition of fungal growth incubated for 16 to 20 hrs in presence of human serum; format: functional; conditions: time 16-20 hrs
[31] = system: Klebsiella pneumoniae; assay: Antibacterial activity against Klebsiella pneumoniae BAA 2473 assessed as inhibition of bacterial growth in presence of 10 microg/ml of proteinase K (reference value: 1.56 to 3.13 microM); format: functional
[32] = system: Acinetobacter baumannii; assay: Bactericidal activity against Acinetobacter baumannii 10591 assessed as inhibition of bacterial growth incubated for 16 to 20 hrs in presence of human serum; format: functional; conditions: time 16-20 hrs
[33] = system: Klebsiella pneumoniae; assay: Bactericidal activity against Klebsiella pneumoniae BAA 2473 assessed as inhibition of bacterial growth in presence of 0.1 microg/ml of chymotrypsin (reference value: 1.56 to 3.13 microM); format: functional
[34] = system: Enterococcus faecium; assay: Antibacterial activity against Enterococcus faecium 10067 assessed as inhibition of bacterial growth incubated for 16 to 20 hrs; format: functional; conditions: time 16-20 hrs
[35] = system: Enterococcus faecium; assay: Bactericidal activity against Enterococcus faecium 10067 assessed as inhibition of bacterial growth incubated for 16 to 20 hrs; format: functional; conditions: time 16-20 hrs
[36] = system: Staphylococcus aureus; assay: Bactericidal activity against Staphylococcus aureus 10780 assessed as inhibition of bacterial growth incubated for 16 to 20 hrs in presence of human serum; format: functional; conditions: time 16-20 hrs
[37] = system: Pseudomonas aeruginosa; assay: Antibacterial activity against Pseudomonas aeruginosa 19660 assessed as inhibition of bacterial growth incubated for 16 to 20 hrs in presence of human serum; format: functional; conditions: time 16-20 hrs
[38] = system: Erythrocyte; assay: Hemolytic activity in human Red blood cells assessed as hemolysis at 200 uM incubated for 1 hrs; format: toxicity, cell-based
[39] = system: Klebsiella oxytoca; assay: Bactericidal activity against Klebsiella oxytoca 13985 assessed as inhibition of bacterial growth incubated for 16 to 20 hrs; format: functional; conditions: time 16-20 hrs
[40] = system: Klebsiella oxytoca; assay: Antibacterial activity against Klebsiella oxytoca 13985 assessed as inhibition of bacterial growth incubated for 16 to 20 hrs; format: functional; conditions: time 16-20 hrs
[41] = system: Klebsiella pneumoniae; assay: Synergistic antibacterial activity against Klebsiella pneumoniae BAA 2473 assessed as fractional inhibitory concentration index in presence of ciprofloxacin by checkerboard assay; format: functional
[42] = system: Klebsiella pneumoniae; assay: Antibacterial activity against Klebsiella pneumoniae BAA 2473 assessed as meropenem MIC; format: functional

In the case of H-FIHHIIGGLFSAGKAIHRLIRRRRR-OH, the MIC [1] is reported as > 100 µM, the MBC [2] is reported as 6.25 µM and the MBC [3] is reported as 3.13 µM. For the same compound, the Activity [4] was “Active”, the MBC [5] was 1.56 µM and the MIC [6] was 100 µM. For the same compound, the MIC [7] was > 100 µM, the MIC [8] was > 100 µM and the MBC [9] was 1.56 µM. For the same compound, the MBC [10] was 6.25 µM, the MBC [11] was > 100 µM and the MBC [12] was > 100 µM. For the same compound, the MIC [13] was 3.13 µM, the MIC [14] was 1.56 µM and the MBC [15] was > 100 µM. The MBC [16] was 3.13 µM, the MBC [17] was > 100 µM and the MBC [18] was 3.13 µM. For the same compound, the Activity [19] was “Active”, the MBC [20] was > 100 µM and the MBC [21] was > 100 µM. The MIC [22] was 3.13 µM, the MBC [23] was 0.78 µM and the MIC [24] was > 100 µM. The MIC [25] was 0.78 µM, the MIC [26] was > 100 µM and the MIC [27] was 6.25 µM. It also gave an MBC [28] of 100 µM, an MIC [29] of 1.56 µM and an MBC [30] of 100 µM. The MIC [31] was > 100 µM, the MBC [32] was 100 µM and the MBC [33] was 1.56 µM. For the same compound, the MIC [34] was 0.39 µM, the MBC [35] was 0.78 µM and the MBC [36] was 50 µM. For the same compound, the MIC [37] was > 100 µM.

For `CC(C)C[C@H](NC(=O)[C@H](CCCCN)NC(=O)[C@@H](CCCCN)NC(=O)[C@H](CC(C)C)NC(=O)[C@@H](N)Cc1ccccc1)C(=O)N[C@H](CC(C)C)C(=O)N[C@@H](CCCCN)C(=O)N[C@@H](C)C(=O)N[C@H](CC(C)C)C(=O)N[C@@H](Cc1ccccc1)C(=O)N[C@@H](CO)C(=O)N[C@H](C)C(=O)N1CCC[C@H]1C(=O)N[C@@H](CCCCN)C(=O)N[C@H](C)C(=O)N[C@@H](CC(C)C)C(=O)N[C@@H](CCCCN)C(=O)N[C@H](CCCNC(=N)N)C(=O)N[C@@H](CC(C)C)C(=O)N[C@@H](CC(C)C)C(=O)N[C@H](CCCNC(=N)N)C(=O)N[C@@H](CCCNC(=N)N)C(=O)N[C@@H](CCCNC(=N)N)C(=O)N[C@H](CCCNC(=N)N)C(=O)N[C@@H](CCCNC(=N)N)C(=O)O`, the MIC [1] was 1.56 µM, the MBC [2] was 6.25 µM (≈ 19.2 µg/mL) and the MBC [3] was 3.13 µM (≈ 9.64 µg/mL). For the same compound, the Activity [4] was “Active”, the MBC [5] was 1.56 µM (≈ 4.8 µg/mL) and the Activity [38] was “Non-Toxic”. The MIC [6] was 0.78 µM, the MIC [7] was 6.25 µM and the MIC [8] was 0.78 µM. The MBC [9] was 3.13 µM (≈ 9.64 µg/mL), the MBC [10] was 6.25 µM (≈ 19.2 µg/mL) and the MBC [11] was 0.78 µM. It also gave an MBC [12] of 3.13 µM, an MIC [13] of 3.13 µM (≈ 9.64 µg/mL) and an MIC [14] of 1.56 µM (≈ 4.8 µg/mL). For the same compound, the MBC [39] was 1.56 µM (≈ 4.8 µg/mL), the MIC [40] was 1.56 µM (≈ 4.8 µg/mL) and the MBC [15] was 0.78 µM. For the same compound, the MBC [16] was 0.78 µM, the “fractional inhibitory concentration index (FICI)” value [41] was 1.003 and the MBC [17] was 1.56 µM. The MIC [42] was 3.12 µM, the MBC [18] was > 12.5 µM and the Activity [19] was “Active”. The MBC [20] was 0.78 µM, the MBC [21] was 0.78 µM and the MIC [22] was 25 µM (≈ 77 µg/mL). The MIC [24] was 12.5 µM, the MIC [25] was 1.56 µM (≈ 4.8 µg/mL) and the MIC [26] was 1.56 µM. The MIC [27] was 1.56 µM (≈ 4.8 µg/mL), the MBC [28] was 6.25 µM and the MIC [29] was 3.13 µM (≈ 9.64 µg/mL). It also gave an MBC [30] of 100 µM, an MIC [31] of 0.78 µM and an MBC [32] of 6.25 µM. It also gave an MBC [33] of 0.78 µM, an MIC [34] of 3.13 µM (≈ 9.64 µg/mL) and an MBC [35] of 12.5 µM (≈ 38.5 µg/mL). The MBC [36] was 100 µM and the MIC [37] was 3.13 µM.
